Like-named read-outs stand apart in the source and are kept apart here.
Experiments:
phospho-p68 = biological target: T1, phospho-p68 (Homo sapiens, UniProt P17844); assay: β-catenin dependent ATPase assay; assay type: biochemical
T1 construct: made in house
Procedure: ATPase activity was determined by measuring the released inorganic phosphate during ATP hydrolysis using a direct colorimetric assay (Shin et al., Cancer Res., 67:7572-7578 (2007); Yang et. al., Cell, 127:139-155 (2006)). A typical ATPase assay was carried out in 50 μl reaction volumes, containing 20 mM Tris-HCl pH 7.5, 200 mM NaCl, 1 mM MgCl2, 5 mM DTT, ˜1-2 of appropriate substrate, 4 mM ATP, and 10 μl of helicase. The ATPase reactions were incubated at 37° C. for 30 minutes. After incubation, 1 ml of malachitegreen-molybdenum reagent was added to the reaction mixture, and reactions were further incubated at room temperature for exactly 5 minutes. The absorption (A) at 630 nm was then measured. The concentrations of inorganic phosphate were determined by matching the A630nm in a standard curve of A630nm vs. known phosphate concentrations. The proteins, p68 or phospho-p68, used for this assay were prepared in-house similar to the procedure reported previously (Yang et al., Protein Expr. Purif., 35:327-333 (2004)). The percentage of inhibition by defining the ATPase activity of phospho-p68 without RX-5902 as zero percent inhibition was calculated and IC50 of RX-5902 was calculated by non-linear regression analysis using Kaledia Graph software program (Synergy Software, Reading, Pa.).
The experiment was repeated at lower concentrations of RX-5902 to calculate IC50.

CYP3A5 = CYP3A5 (Homo sapiens, UniProt P20815); assay: Loss of RX-5902 after incubation with expressed CYP450 isozyme; assay type: in vitro ADME; details: 30-minute incubation with expressed CYP3A5
Procedure: (§1) Two in vitro studies were performed to examine the involvement of specific cytochrome P450 (CYP450) isozymes in the in vitro metabolism of RX-5902. In the first study, the loss of RX-5902 was measured after incubation with expressed CYP450 isozymes (1A2, 2A6, 2B6, 2C8, 2C9, 2C19, 2D6, 3A4 and 3A5). […] In the second study, RX-5902 was incubated with pooled human liver microsomes in the presence of CYP450 isozyme-selective chemical inhibitors. The inhibitors tested were selective for 1A2, 2A6, 2B6, 2C8, 2C9, 2C19, 2D6, and 3A4/5.

CYP3A4 = CYP3A4 (Homo sapiens, UniProt P08684); assay: as above; assay type: in vitro ADME; details: 30-minute incubation with expressed CYP3A4
Procedure: as §1

[1] = tested on: human renal tumor xenografts (Caki-1); assay type: in vivo; details: oral; for TGI: 5 days on/2 days off, Day 21
Excerpt: The efficacy of RX-5902 in human cancer xenograft mouse models is examined. Female nude mice (nu/nu, Harlan or CRL: NU(NCr)-Foxn1^nu, Charles River), 9-10 weeks old, with a body weight (BW) range of 15-30 g on day 1 of the study, are fed ad libitum water (reverse osmosis, 1 ppm C1), and NIH 31 Modified and Irradiated Lab Diet® consisting of 18.0% crude protein, 5.0% crude fat, and 5.0% crude fiber. The mice are housed on irradiated Enrich-o'Cobs™ Laboratory Animal Bedding in static microisolators on a 12-hour light cycle at 20-22° C. (68-72° F.) and 40-60% humidity. The study complies with the recommendations of the Guide for, Care and Use of Laboratory Animals with respect to restraint, husbandry, surgical procedures, feed and fluid regulation, and veterinary care.
Various human tumor cell lines (e.g., HCT116, HT29, H460, H69, Caki-1, CaSki, MiaPaca2, BxPC3 and Colo 205 cells [ATCC, Manassas, Va., USA]) are cultured according to ATCC's instruction. The tumor cells are cultured in tissue culture flasks in a humidified incubator at 37° C., in an atmosphere of 5% CO2 and 95% air.
The cells are harvested during exponential growth and re-suspended with phosphate buffered saline. Each test animal receives a subcutaneous (s.c.) injection of 5×10^6 tumor cells into the right flank and tumor growth is monitored as the average tumor size approaches the target range of 80-300 mm^3. When tumors reach the target size mice are randomized into several groups (n=10-20) and treatment with various regimens of RX-5902 or a positive (e.g., gemcitabine) or negative control (e.g.; vehicle, saline) is initiated. Tumors and body weights are measured regularly until the study is terminated.
Tumors are measured in two dimensions using calipers, and volume is calculated using the formula:
[formula] where w=width and 1=length, in mm, of the tumor. Tumor weight may be estimated with the assumption that 1 mg is equivalent to 1 mm^3 of tumor volume.
Treatment begins on Day 1 in eight groups of mice (n=10-20/group) with established subcutaneous tumors of a particular cell line. Each group is treated according to the study design. All doses are adjusted per body weight. Animals in each group are divided for efficacy and sampling purposes. There are also groups designated to vehicle control and no treatment for sampling purposes.
[…] […] Percent tumor growth inhibition (% TGI) is defined as the difference between the MTV of the designated control group (vehicle administration) and the MTV of the drug-treated group, expressed as a percentage of the MTV of the control group: % TGI=[1−(MTVdrug treated/MTVcontrol)]×100 The data set for TGI analysis includes all animals in a group, except those that die due to treatment-related (TR) or non-treatment-related (NTR) causes. An agent that produces at least 60% TGI in this assay is considered to be potentially therapeutically active.
Animals are monitored individually for tumor growth until Day 71. […] The time to endpoint (TTE) for each mouse is calculated with the following equation:
[formula] where b is the intercept and m is the slope of the line obtained by linear regression of a log-transformed tumor growth data set. […] In instances in which the log-transformed calculated TTE precedes the day prior to reaching endpoint or exceeds the day of reaching tumor volume endpoint, a linear interpolation is performed to approximate TTE. Any animal determined to have died from treatment-related (TR) causes is assigned a TTE value equal to the day of death. […]

T1 sequence (P17844 whole entry): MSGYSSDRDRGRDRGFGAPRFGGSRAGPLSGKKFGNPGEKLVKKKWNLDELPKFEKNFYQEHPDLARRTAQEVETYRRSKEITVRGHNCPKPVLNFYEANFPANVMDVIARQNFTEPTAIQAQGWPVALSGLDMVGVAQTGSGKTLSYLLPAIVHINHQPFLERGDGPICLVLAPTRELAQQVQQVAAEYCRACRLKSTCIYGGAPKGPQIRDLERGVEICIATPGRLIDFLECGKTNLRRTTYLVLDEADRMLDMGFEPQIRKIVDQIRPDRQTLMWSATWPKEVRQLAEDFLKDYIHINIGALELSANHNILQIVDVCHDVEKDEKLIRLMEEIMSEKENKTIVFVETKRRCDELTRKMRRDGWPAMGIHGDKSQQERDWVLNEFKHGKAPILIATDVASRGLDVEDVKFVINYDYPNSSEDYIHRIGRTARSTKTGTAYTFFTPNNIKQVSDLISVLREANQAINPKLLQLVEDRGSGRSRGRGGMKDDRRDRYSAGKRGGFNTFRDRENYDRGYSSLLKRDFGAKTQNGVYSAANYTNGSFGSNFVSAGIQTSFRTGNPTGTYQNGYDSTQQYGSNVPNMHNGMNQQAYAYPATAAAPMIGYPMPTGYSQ
Sequence of CYP3A4 (P08684 whole entry): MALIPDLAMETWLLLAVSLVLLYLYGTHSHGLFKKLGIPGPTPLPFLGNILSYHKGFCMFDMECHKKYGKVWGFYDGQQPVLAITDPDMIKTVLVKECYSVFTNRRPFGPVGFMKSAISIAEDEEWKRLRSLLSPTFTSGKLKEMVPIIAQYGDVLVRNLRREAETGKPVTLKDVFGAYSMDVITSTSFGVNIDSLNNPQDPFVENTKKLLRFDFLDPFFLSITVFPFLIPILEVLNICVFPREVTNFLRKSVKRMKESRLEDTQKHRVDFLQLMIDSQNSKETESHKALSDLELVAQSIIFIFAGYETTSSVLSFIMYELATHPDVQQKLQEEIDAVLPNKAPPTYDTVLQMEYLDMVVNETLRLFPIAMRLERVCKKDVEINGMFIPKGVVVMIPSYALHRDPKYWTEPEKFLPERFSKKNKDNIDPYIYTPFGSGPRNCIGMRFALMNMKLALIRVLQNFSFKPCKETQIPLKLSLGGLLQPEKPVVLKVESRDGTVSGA
Sequence of CYP3A5 (P20815 whole entry): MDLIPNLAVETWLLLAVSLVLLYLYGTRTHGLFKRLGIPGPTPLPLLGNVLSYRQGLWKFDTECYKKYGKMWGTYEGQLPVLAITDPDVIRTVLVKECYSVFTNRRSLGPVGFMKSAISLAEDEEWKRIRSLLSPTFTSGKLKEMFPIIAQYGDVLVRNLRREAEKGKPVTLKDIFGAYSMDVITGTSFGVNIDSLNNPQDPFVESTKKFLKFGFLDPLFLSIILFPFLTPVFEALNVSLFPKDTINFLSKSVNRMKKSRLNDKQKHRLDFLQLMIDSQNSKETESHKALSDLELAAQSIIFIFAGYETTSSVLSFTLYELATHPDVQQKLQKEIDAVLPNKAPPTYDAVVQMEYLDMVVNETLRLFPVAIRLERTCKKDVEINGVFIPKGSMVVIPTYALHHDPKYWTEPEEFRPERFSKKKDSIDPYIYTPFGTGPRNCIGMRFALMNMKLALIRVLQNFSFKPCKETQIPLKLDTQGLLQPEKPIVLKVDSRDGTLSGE

COc1cc(OC)cc(N2CCN(C(=O)Nc3nc4cc(F)ccc4nc3OC)CC2)c1 [RX-5902, 4-(3,5-dimethoxyphenyl)-N-(7-fluoro-3-methoxyquinoxalin-2-yl)piperazine-1-carboxamide]
β-catenin dependent ATPase activity (phospho-p68; 0.2 μM): largely diminished
IC50 (phospho-p68; read-out: IC50 for the inhibition of β-catenin dependent ATPase activity): 61 nM
loss of RX-5902 (CYP3A5): 54%
loss of RX-5902 (CYP3A4): 87%
TGI ([1]; 50 mg/kg daily): 80%
complete tumor regressions ([1]; 70 mg/kg daily): 1/10
partial tumor regressions ([1]; 70 mg/kg daily): 6/10
TGI ([1]; 70 mg/kg daily): 96%
overall survival of the animals ([1]; 50 and 70 mg/kg daily, both doses (P<0.0001)): extended the overall survival

From patent publication US9969698B2, “Quinoxalinyl-piperazinamide methods of use” (REXAHN PHARMACEUTICALS, INC., priority 2015, dated 2018)
